Data from publication PMC5794259, “Novel ATP-cone-driven allosteric regulation of ribonucleotide reductase via the radical-generating subunit” (eLife, 2018).
Where “and” joins values, the source holds several entries; their conditions need not be identical. Identical values can stand only once.

Key:
[1] = target: L. blandensis RNR, a-site (NrdB-linked ATP-cone) (Leeuwenhoekiella blandensis, UniProt A3XHF9); experiment: Enzyme activity assay with wild type NrdB (overall activity regulation, a-site); type: biochemical; settings: for interaction with the a-site (effect on GDP reduction): 2 mM nucleotide, s-site saturating dTTP (2 mM), 4 µM NrdA and 1 µM NrdB
Method: (§1) Enzyme assays were performed at room temperature in 50 mM Tris-HCl at pH 8 in volumes of 50 μl. Reaction conditions, giving maximal activity were determined experimentally. […] Mixtures of 0.5 μM NrdA and 2 μM wild type NrdB or NrdB∆99 (for determination of s-site KL) (Figure 3a–b) or 0.5 μM of NrdB and 2 uM NrdA (for determination of a-site KL), (Figure 3c–f) were used. Some components were explicitly varied in specific experiments. Generally, 0.8 mM CDP was used as substrate. […] When dTTP was used as an s-site effector, 0.5 mM or 0.8 mM GDP was used as substrate. In four substrate assays, the four substrates CDP, ADP, GDP and UDP were simultaneously present in the mixture at concentrations of 0.5 mM each. The substrate mixture was added last to start the reactions. Certain assays were performed in the presence of Mn(CH3COO)2 or FeNH4(SO4): 20 μM of the indicated metal was added to 10 μM NrdB or NrdB∆99 protein, incubated for 10 min, mixed with NrdA and added to the reaction mixture.
(§2) Enzyme reactions were incubated for 10–30 min and then stopped by the addition of methanol. The chosen incubation time gave a maximum substrate turnover of 30%. […] Compound identification was achieved by comparison with injected standards. Relative quantification was obtained by peak height measurements in the chromatogram (UV absorbance at 271 nm) in relation to standards. Specific activities of either NrdA (Figure 2a–b) or NrdB (Figure 2c–f) were determined. Specific activities varied between protein preparations. In some cases the data was standardized to activity percent, where 100% was determined as maximum enzyme activity in a specific condition.
(§3) From a direct plot of activity versus concentration of effector, the KL values for binding of effectors to the s-site and the a-site, were calculated in SigmaPlot using the equation: V=Vmax×[dNTP]/(KL+[dNTP]) and Ki for non-competitive dATP inhibition at NrdB was calculated in Sigmaplot using the equation: V=Vmax/(1+[dNTP]/Ki)

[2] = test system: L. blandensis class I RNR; experiment: Four-substrate activity assay, allosteric specificity regulation; type: biochemical, Leeuwenhoekiella blandensis; settings: all four substrates 0.5 mM each, effector 2 mM, 1 µM NrdB and 4 µM NrdA
Method: as §1, §2

NrdB [3] = target: T1, NrdB (Leeuwenhoekiella blandensis, UniProt A3XHF9); experiment: GEMMA analysis of NrdB oligomers
Method: In GEMMA, biomolecules are electrosprayed into gas phase, neutralized to singly charged particles, and the gas phase electrophoretic mobility is measured with a differential mobility analyzer. The mobility of an analyzed particle is proportional to its diameter, which therefore allows for quantitative analysis of the different particle sizes contained in a sample ([Kaufman et al., 1996]). The GEMMA instrumental setup and general procedures were as described previously ([Rofougaran et al., 2008]). NrdA, NrdB and NrdB∆99 proteins were equilibrated by Sephadex G-25 chromatography into a buffer containing 100 mM ammonium acetate, pH 7.8. In addition, 2 mM DTT was added to the NrdA protein solutions to increase protein stability. Prior to GEMMA analysis, the protein samples were diluted to a concentration of 0.025–0.1 mg/ml in a buffer containing 20 mM ammonium acetate, pH 7.5, 0.005% (v/v) Tween 20, nucleotides (when indicated), and magnesium acetate (equimolar to the total nucleotide concentration), incubated for 5 min at room temperature, centrifuged and applied to the GEMMA instrument. Protein concentrations higher than normally recommended for GEMMA were needed to see the larger oligomeric complexes and the experiments to measure NrdA-NrdB interactions were run at as low flow rate as possible (driven by 1.4 Psi pressure) to minimize false interactions that may appear with elevated protein concentration if the flow-rate recommended by the manufacturer is used (3.7 Psi). Most of our experiments were performed with a flow rate driven by 2 Psi.

s-site in NrdA = target: T2, s-site in NrdA (Leeuwenhoekiella blandensis, UniProt A3XHF8); experiment: Enzyme activity assay, CDP reduction, effector titration with NrdB∆99 (s-site); type: biochemical; settings: 0.5 µM NrdA and 2 µM NrdB∆99, read-out: KL (s-site), concentration of allosteric effector that gives half maximal enzyme activity
T2 sequence (A3XHF8 1-600): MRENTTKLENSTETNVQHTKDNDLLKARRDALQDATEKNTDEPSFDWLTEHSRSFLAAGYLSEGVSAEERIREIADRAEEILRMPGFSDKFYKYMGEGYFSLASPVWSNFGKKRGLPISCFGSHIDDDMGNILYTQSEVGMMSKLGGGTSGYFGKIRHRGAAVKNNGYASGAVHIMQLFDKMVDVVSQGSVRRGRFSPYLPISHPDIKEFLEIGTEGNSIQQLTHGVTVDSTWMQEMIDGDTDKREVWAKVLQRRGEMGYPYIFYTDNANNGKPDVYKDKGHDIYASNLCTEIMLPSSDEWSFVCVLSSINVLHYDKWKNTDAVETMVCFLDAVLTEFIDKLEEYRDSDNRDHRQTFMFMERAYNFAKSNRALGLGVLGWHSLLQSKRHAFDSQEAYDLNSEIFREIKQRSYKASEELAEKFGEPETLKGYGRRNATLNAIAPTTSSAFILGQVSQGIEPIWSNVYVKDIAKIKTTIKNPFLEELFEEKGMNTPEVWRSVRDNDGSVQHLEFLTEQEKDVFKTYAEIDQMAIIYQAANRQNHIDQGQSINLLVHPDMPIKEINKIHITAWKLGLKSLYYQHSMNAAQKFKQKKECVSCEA
T2 sequence (A3XHF9 100-427 partner): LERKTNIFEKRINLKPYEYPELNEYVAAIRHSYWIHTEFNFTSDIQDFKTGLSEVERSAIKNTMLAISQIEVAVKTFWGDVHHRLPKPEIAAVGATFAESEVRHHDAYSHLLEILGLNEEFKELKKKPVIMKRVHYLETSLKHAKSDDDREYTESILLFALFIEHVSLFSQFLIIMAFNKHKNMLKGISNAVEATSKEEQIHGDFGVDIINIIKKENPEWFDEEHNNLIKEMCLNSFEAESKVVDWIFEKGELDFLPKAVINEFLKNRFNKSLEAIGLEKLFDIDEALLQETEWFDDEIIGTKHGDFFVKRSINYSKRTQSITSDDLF
Method: Enzyme assays were performed at room temperature in 50 mM Tris-HCl at pH 8 in volumes of 50 μl. Reaction conditions, giving maximal activity were determined experimentally. […] Mixtures of 0.5 μM NrdA and 2 μM wild type NrdB or NrdB∆99 (for determination of s-site KL) (Figure 3a–b) or 0.5 μM of NrdB and 2 uM NrdA (for determination of a-site KL), (Figure 3c–f) were used. Some components were explicitly varied in specific experiments. Generally, 0.8 mM CDP was used as substrate. […] When dTTP was used as an s-site effector, 0.5 mM or 0.8 mM GDP was used as substrate. […]
Enzyme reactions were incubated for 10–30 min and then stopped by the addition of methanol. […] Relative quantification was obtained by peak height measurements in the chromatogram (UV absorbance at 271 nm) in relation to standards. Specific activities of either NrdA (Figure 2a–b) or NrdB (Figure 2c–f) were determined. […] In some cases the data was standardized to activity percent, where 100% was determined as maximum enzyme activity in a specific condition.
as §3

NrdB [4] = target: T1, NrdB; experiment: Isothermal titration calorimetry (ITC), nucleotide binding to NrdB; settings: 10°C
Method: Isothermal titration calorimetry (ITC) experiments were carried out on a MicroCal PEAQ-ITC system (Malvern Instruments Ltd) in a buffer containing 25 mM HEPES (pH 7.65), 150 mM NaCl, and 10% glycerol, 2 mM tris(2-carboxyethyl)phosphine, and 5 mM MgCl2. Measurements were done at 10°C. The initial injection volume was 0.4 μl over a duration of 0.8 s. All subsequent injection volumes were 2–2.5 μl over 4–5 s with a spacing of 150 s between the injections. Data for the initial injection were not considered. For dATP binding analysis, the concentration of NrdB in the cell was 12 µM and dATP in syringe 120 or 140 µM. Reverse titrations were performed with 113 µM NrdB in the syringe and 12 or 30 µM dATP in the cell. For titration of dATP into NrdB∆99, protein concentration in the cell and dATP concentration in the syringe were 50 µM and 900 µM respectively. […] For titration of ATP into NrdB, cell and syringe concentrations were 50 and 1600 µM respectively. The data were analyzed using the built-in one set of sites model of the MicroCal PEAQ-ITC Analysis Software (Malvern Instruments Ltd). A fixed ligand/protein stoichiometry of 2 was used for dATP to NrdB titrations. Standard deviations in thermodynamic parameters, N and Kd were estimated from the fits of three different titrations.

[5] = target: the molecule itself; experiment: SEC; with ATP; Superdex 200 10/300 GL at room temperature; 50 mM Tris-HCl pH 7.6, 150 mM KCl, 10 mM MgCl2; NrdB 10 µM
[6] = target: the molecule itself; experiment: GEMMA (gas-phase electrophoretic macromolecule analysis); with 50 µM dATP and equimolar magnesium acetate; 20 mM ammonium acetate pH 7.5, 0.005% Tween 20; NrdB 0.1 mg/ml (~2 µM) or NrdB∆99

How did the “interaction with the a-site (effect on GDP reduction)” value [1] turn out when `Nc1ncnc2c1ncn2[C@H]1C[C@H](O)[C@@H](COP(=O)(O)O)O1` [dAMP] was run?
Its value is “no effect”.

How did the “effect of s-site effector on substrate reduction” value [2] turn out when `Nc1nc2c(ncn2[C@H]2C[C@H](O)[C@@H](COP(=O)(O)OP(=O)(O)OP(=O)(O)O)O2)c(=O)[nH]1` [dGTP] was run?
The value was “stimulated the reduction of ADP and GDP”.

Which “interaction with the a-site (effect on GDP reduction)” value [1] does the source give for `Nc1ncnc2c1ncn2[C@@H]1O[C@H](COP(=O)(O)OP(=O)(O)O)[C@@H](O)[C@H]1O` [ADP] here?
Its value is “no effect”.

`Nc1ncnc2c1ncn2[C@H]1C[C@H](O)[C@@H](COP(=O)(O)OP(=O)(O)OP(=O)(O)O)O1` [dATP] was tested. Which “effect on NrdB oligomer equilibrium” value (NrdB [3]; 50 µM nucleotide, 0.1 mg/ml NrdB (~2 µM)) did it give?
The value was “dramatically shifted the equilibrium towards tetramers β4”.

What about the EC50 (NrdB [3]; GEMMA, 2 Psi, NrdB (~1 μM), read-out: concentration at which NrdB tetramers reach half-maximum mass concentration) of the same molecule?
Its EC50 is about 10 µM.

And the EC50 (s-site in NrdA)?
The EC50 was 1.4 µM.

And the “-TΔS” value (NrdB [4])?
The value was 11.2 ± 2.39 kcal/mol.

What about the ΔG (NrdB [4]) of the same molecule?
The ΔG was -7.89 kcal/mol.

What about the ΔH (NrdB [4]) of the same molecule?
Its ΔH is -18.9 kcal/mol and -18.9 ± 2.39 kcal/mol.

And the Kd (NrdB [4]; one-set-of-sites model)?
The Kd was 1 ± 0.2 µM.

What about the “N (binding stoichiometry)” value (NrdB [4]; per NrdB monomer, for dATP kept constant N = 2, 59% active protein) of the same molecule?
Its value is 2.

And the Ki [1]?
The Ki was 20 µM.

And the “concentration at which inhibitory” value ([1]; CDP reduction, 0.5 µM NrdA and 2 µM wild type NrdB, activates at low concentrations)?
The value was at least 30 µM.

Which “effect of s-site effector on substrate reduction” value [2] does the source give for `Cc1cn([C@H]2C[C@H](O)[C@@H](COP(=O)(O)OP(=O)(O)OP(=O)(O)O)O2)c(=O)[nH]c1=O` [dTTP] here?
Its value is “stimulated the reduction of GDP”.

B1: Leeuwenhoekiella blandensis NrdBi (wild type NrdB, radical-generating subunit of class I ribonucleotide reductase) (enzyme, UniProt A3XHF9 1-427, looked up)
chain: MSSQEIKKIIKRDYSTAPFVLEKITNAIANAMAALGHGSEQDAKLISMQVYESLLNNKEQESEYIPTVEQVQDMVEDKLMSSEFHDVAKAYIIYRNKRALERKTNIFEKRINLKPYEYPELNEYVAAIRHSYWIHTEFNFTSDIQDFKTGLSEVERSAIKNTMLAISQIEVAVKTFWGDVHHRLPKPEIAAVGATFAESEVRHHDAYSHLLEILGLNEEFKELKKKPVIMKRVHYLETSLKHAKSDDDREYTESILLFALFIEHVSLFSQFLIIMAFNKHKNMLKGISNAVEATSKEEQIHGDFGVDIINIIKKENPEWFDEEHNNLIKEMCLNSFEAESKVVDWIFEKGELDFLPKAVINEFLKNRFNKSLEAIGLEKLFDIDEALLQETEWFDDEIIGTKHGDFFVKRSINYSKRTQSITSDDLF
notes: NrdBi, radical-generating subunit of the class I RNR of Leeuwenhoekiella blandensis sp. nov. strain MED217; GenBank EAQ51288; amplified from genomic DNA with primers from the start codon to the stop codon; ATP-cone 1-103, linker 104-106, core 107-398, C-terminus 399-427; pET-28a(+) construct with N-terminal hexahistidine tag and thrombin site; Oligomeric state depends on nucleotide: dimer with …
With B1 as the molecule, how does the “stoichiometry N” value [5] read?
The value was 2.

What about the “stoichiometry N” value [6] of the same molecule?
Its value is 4.
